Here are results for 15 compounds from patent US20240239792A1, “MODULATORS OF BCL-2 OR BCL-2/BCL-XL AND USES THEREOF” (APPICINE THERAPEUTICS (HK) LIMITED, priority 2021, published 2024).

SMILES strings stand for the structures.

The target in assay [1] is T1, BCL-XL (Homo sapiens, UniProt Q07817).
T1 construct: purchased Cisbio 63ADK000CB04PEG
Description: HTRF BCL-XL/BAK assay (Cisbio). Type of assay: binding. To be noted: recombinant human Tag1-BCL-XL 2 nM, Tag2-BAK 5 nM. As to the method: (§1) Then the pre-mixed anti-Tag1-Eu^3+ and anti-tag2-XL665 were added to the plate and further incubated at room temperature for another 2 hours. The signals ([…]) were read on Envision 2104 instrument. The IC50 for each compound was derived from fitting the signal of 665/615 nM to the increasing compound concentration.
(§2) Using the above assays, the following compounds were tested.
For orientation: TR-FRET usually uses a lanthanide donor and a delayed reading to cut background.

Assay [2] deals with T2, BCL-2 (Homo sapiens, UniProt P10415).
T2 construct: purchased Cisbio 63ADK000CB01PEG
The assay is described as follows: HTRF BCL-2/BAK assay (Cisbio). Type of assay: binding. To be noted: recombinant human Tag1-BCL-2 2 nM, Tag2-BAK 10 nM. As to the method: as §1, §2

Assay [3] relates to DOHH2 cells. Description: CellTiter-Glo cell proliferation assay, DOHH2 cells. To be noted: Homo sapiens, DOHH-2, 72 hours. It counts as cell-based. The method in brief:
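GI50 derived from CellTiter-Glo luminescent viability signal. Cells grown in DMEM with 10% FBS received a compound dilution series for 72 h (37 °C, 5% CO2).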
In general terms: ATP-based viability assays read luminescence as a measure of living cells.

T1 sequence (Q07817 whole entry): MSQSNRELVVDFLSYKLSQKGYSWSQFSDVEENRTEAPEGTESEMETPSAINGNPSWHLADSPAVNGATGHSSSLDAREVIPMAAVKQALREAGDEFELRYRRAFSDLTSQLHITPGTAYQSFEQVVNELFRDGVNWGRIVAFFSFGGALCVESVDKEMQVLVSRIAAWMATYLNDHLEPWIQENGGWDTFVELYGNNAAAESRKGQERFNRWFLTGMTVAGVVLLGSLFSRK
T2 sequence (P10415 whole entry): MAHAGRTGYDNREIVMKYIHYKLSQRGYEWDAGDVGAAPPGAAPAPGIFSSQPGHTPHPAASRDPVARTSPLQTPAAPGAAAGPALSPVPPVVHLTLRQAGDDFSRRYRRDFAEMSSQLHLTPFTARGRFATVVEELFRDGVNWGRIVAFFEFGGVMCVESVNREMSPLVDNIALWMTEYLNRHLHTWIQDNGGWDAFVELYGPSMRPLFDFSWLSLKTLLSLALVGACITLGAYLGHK

Usually IC50 stands for the concentration at which inhibition is half-maximal. As a reminder, the GI50 is the concentration that inhibits growth by half. The low end stands for greater sensitivity of the cells, the high end for lower sensitivity of the cells. Consider `CC1(C)CC(CNc2ccc(S(=O)(=O)NC(=O)c3ccc(N4CCN([C@@H]5CCCCc6c(Cl)cccc65)CC4)cc3Oc3cnc4[nH]ccc4c3)cc2[N+](=O)[O-])CCO1` (stereo partly drawn) [Compound 102, 2-((1H-pyrrolo[2,3-b]pyridin-5-yl)oxy)-4-(4-((R)-1-chloro-6,7,8,9-tetrahydro-5H-benzo[7]annulen-5-yl)piperazin-1-yl)-N-((4-(((2,2-dimethyltetrahydro-2H-pyran-4-yl)methyl)amino)-3-nitrophenyl)sulfonyl)benzamide], for which the concentration for half-maximal inhibition (IC50) in assay [1] is 20 to 200 nM; in assay [2], less than 20 nM. In addition, the concentration for 50% growth inhibition (GI50) in assay [3] was less than 50 nM.

In the case of `CC(C)(C)OC(=O)NCCN1CCC2(CC1)CC(CNc1ccc(S(=O)(=O)NC(=O)c3ccc(N4CCN([C@@H]5CCCCc6c(Cl)cccc65)CC4)cc3Oc3cnc4[nH]ccc4c3)cc1[N+](=O)[O-])C2` [Compound 109, tert-butyl (R)-(2-(2-(((4-(N-(2-((1H-pyrrolo[2,3-b]pyridin-5-yl)oxy)-4-(4-(1-chloro-6,7,8,9-tetrahydro-5H-benzo[7]annulen-5-yl)piperazin-1-yl)benzoyl)sulfamoyl)-2-nitrophenyl)amino)methyl)-7-azaspiro[3.5]nonan-7-yl)ethyl)carbamate], the 50% inhibitory concentration (IC50) in assay [1] is 20 to 200 nM; in assay [2] it was less than 20 nM. Moreover, in assay [3], the 50% growth inhibitory concentration (GI50) is less than 50 nM.

Regarding `NCCN1CCC2(CC1)CC(CNc1ccc(S(=O)(=O)NC(=O)c3ccc(N4CCN([C@@H]5CCCCc6c(Cl)cccc65)CC4)cc3Oc3cnc4[nH]ccc4c3)cc1[N+](=O)[O-])C2` [Compound 110, (R)-2-((1H-pyrrolo[2,3-b]pyridin-5-yl)oxy)-N-((4-(((7-(2-aminoethyl)-7-azaspiro[3.5]nonan-2-yl)methyl)amino)-3-nitrophenyl)sulfonyl)-4-(4-(1-chloro-6,7,8,9-tetrahydro-5H-benzo[7]annulen-5-yl)piperazin-1-yl)benzamide], the 50% inhibitory concentration (IC50) in assay [1] and in assay [2] was less than 20 nM in each case. Besides, in assay [3], the concentration for 50% growth inhibition (GI50) is less than 50 nM.

`CC(=O)N1CCC2(CC1)CC(CNc1ccc(S(=O)(=O)NC(=O)c3ccc(N4CCN([C@@H]5CCCCc6c(Cl)cccc65)CC4)cc3Oc3cnc4[nH]ccc4c3)cc1[N+](=O)[O-])C2` [Compound 111, (R)-2-((1H-pyrrolo[2,3-b]pyridin-5-yl)oxy)-N-((4-(((7-acetyl-7-azaspiro[3.5]nonan-2-yl)methyl)amino)-3-nitrophenyl)sulfonyl)-4-(4-(1-chloro-6,7,8,9-tetrahydro-5H-benzo[7]annulen-5-yl)piperazin-1-yl)benzamide]: the figures for the IC50 in assay [1] and in assay [2] were 20 to 200 nM and less than 20 nM, respectively. The concentration for 50% growth inhibition (GI50) in assay [3] was less than 50 nM.

Turning to `O=C(NS(=O)(=O)c1ccc(NCC2CC3(CCNCC3)C2)c([N+](=O)[O-])c1)c1ccc(N2CCN([C@@H]3CCCCc4c(Cl)cccc43)CC2)cc1` [Compound 117, (R)-N-((4-(((7-azaspiro[3.5]nonan-2-yl)methyl)amino)-3-nitrophenyl)sulfonyl)-4-(4-(1-chloro-6,7,8,9-tetrahydro-5H-benzo[7]annulen-5-yl)piperazin-1-yl)benzamide], the 50% inhibitory concentration (IC50) in assay [1] and in assay [2] was 20 to 200 nM in each case. In addition, in assay [3], the GI50 was more than 5000 nM.

`CC(C)(C)OC(=O)NCCN1CCC2(CC1)CC(CNc1ccc(S(=O)(=O)NC(=O)c3ccc(N4CCN([C@@H]5CCCCc6c(Cl)cccc65)CC4)cc3)cc1[N+](=O)[O-])C2` [Compound 119, tert-butyl (R)-(2-(2-(((4-(N-(4-(4-(1-chloro-6,7,8,9-tetrahydro-5H-benzo[7]annulen-5-yl)piperazin-1-yl)benzoyl)sulfamoyl)-2-nitrophenyl)amino)methyl)-7-azaspiro[3.5]nonan-7-yl)ethyl)carbamate]: the IC50 in assay [1] lay within 200 to 2000 nM; in assay [2] it was 20 to 200 nM. The GI50 in assay [3] was in the range of 50 to 500 nM.

As for `NCCN1CCC2(CC1)CC(CNc1ccc(S(=O)(=O)NC(=O)c3ccc(N4CCN([C@@H]5CCCCc6c(Cl)cccc65)CC4)cc3)cc1[N+](=O)[O-])C2` [Compound 120, (R)-N-((4-(((7-(2-aminoethyl)-7-azaspiro[3.5]nonan-2-yl)methyl)amino)-3-nitrophenyl)sulfonyl)-4-(4-(1-chloro-6,7,8,9-tetrahydro-5H-benzo[7]annulen-5-yl)piperazin-1-yl)benzamide], the half-maximal inhibitory concentration (IC50) in assay [1] and in assay [2] was 20 to 200 nM in each case. Moreover, the GI50 in assay [3] lay within 500 to 5000 nM.

Regarding `O=C(NS(=O)(=O)c1ccc(NCC2CC3(CCN(CCO)CC3)C2)c([N+](=O)[O-])c1)c1ccc(N2CCN([C@@H]3CCCCc4c(Cl)cccc43)CC2)cc1Oc1cnc2[nH]ccc2c1` [Compound 121, (R)-2-((1H-pyrrolo[2,3-b]pyridin-5-yl)oxy)-4-(4-(1-chloro-6,7,8,9-tetrahydro-5H-benzo[7]annulen-5-yl)piperazin-1-yl)-N-((4-(((7-(2-hydroxyethyl)-7-azaspiro[3.5]nonan-2-yl)methyl)amino)-3-nitrophenyl)sulfonyl)benzamide], the 50% inhibitory concentration (IC50) in assay [1] and in assay [2] was less than 20 nM in each case. In assay [3], the GI50 was less than 50 nM.

Regarding `CCOC(=O)CN1CCC2(CC1)CC(CNc1ccc(S(=O)(=O)NC(=O)c3ccc(N4CCN([C@@H]5CCCCc6c(Cl)cccc65)CC4)cc3Oc3cnc4[nH]ccc4c3)cc1[N+](=O)[O-])C2` [Compound 122, ethyl (R)-2-(2-(((4-(N-(2-((1H-pyrrolo[2,3-b]pyridin-5-yl)oxy)-4-(4-(1-chloro-6,7,8,9-tetrahydro-5H-benzo[7]annulen-5-yl)piperazin-1-yl)benzoyl)sulfamoyl)-2-nitrophenyl)amino)methyl)-7-azaspiro[3.5]nonan-7-yl)acetate], the IC50 was 20 to 200 nM in assay [1] and less than 20 nM in assay [2]. This compound also came in with a GI50 in assay [3] of less than 50 nM.

As for `O=C(O)CN1CCC2(CC1)CC(CNc1ccc(S(=O)(=O)NC(=O)c3ccc(N4CCN([C@@H]5CCCCc6c(Cl)cccc65)CC4)cc3Oc3cnc4[nH]ccc4c3)cc1[N+](=O)[O-])C2` [Compound 123, (R)-2-(2-(((4-(N-(2-((1H-pyrrolo[2,3-b]pyridin-5-yl)oxy)-4-(4-(1-chloro-6,7,8,9-tetrahydro-5H-benzo[7]annulen-5-yl)piperazin-1-yl)benzoyl)sulfamoyl)-2-nitrophenyl)amino)methyl)-7-azaspiro[3.5]nonan-7-yl)acetic acid], the half-maximal inhibitory concentration (IC50) in assay [1] and in assay [2] was less than 20 nM each time. The concentration for 50% growth inhibition (GI50) in assay [3] lay in the range of 50 to 500 nM.

Consider `CC(C)C(=O)N1CCC2(CC1)CC(CNc1ccc(S(=O)(=O)NC(=O)c3ccc(N4CCN([C@@H]5CCCCc6c(Cl)cccc65)CC4)cc3Oc3cnc4[nH]ccc4c3)cc1[N+](=O)[O-])C2` [Compound 124, (R)-2-((1H-pyrrolo[2,3-b]pyridin-5-yl)oxy)-4-(4-(1-chloro-6,7,8,9-tetrahydro-5H-benzo[7]annulen-5-yl)piperazin-1-yl)-N-((4-(((7-isobutyryl-7-azaspiro[3.5]nonan-2-yl)methyl)amino)-3-nitrophenyl)sulfonyl)benzamide], for which the concentration for half-maximal inhibition (IC50) in assay [1] is 20 to 200 nM; in assay [2], less than 20 nM. Moreover, in assay [3], the GI50 was less than 50 nM.

`CC(C)[C@H](N)C(=O)N1CCC2(CC1)CC(CNc1ccc(S(=O)(=O)NC(=O)c3ccc(N4CCN([C@@H]5CCCCc6c(Cl)cccc65)CC4)cc3Oc3cnc4[nH]ccc4c3)cc1[N+](=O)[O-])C2` [Compound 125, 2-((1H-pyrrolo[2,3-b]pyridin-5-yl)oxy)-N-((4-(((7-(L-valyl)-7-azaspiro[3.5]nonan-2-yl)methyl)amino)-3-nitrophenyl)sulfonyl)-4-(4-((R)-1-chloro-6,7,8,9-tetrahydro-5H-benzo[7]annulen-5-yl)piperazin-1-yl)benzamide]: the IC50 in assay [1] and in assay [2] was less than 20 nM throughout. The compound further yielded a 50% growth inhibitory concentration (GI50) in assay [3] of less than 50 nM.

With `O=C(NS(=O)(=O)c1ccc(NCC2CC3(CCN(CC4CC4)CC3)C2)c([N+](=O)[O-])c1)c1ccc(N2CCN([C@@H]3CCCCc4c(Cl)cccc43)CC2)cc1Oc1cnc2[nH]ccc2c1` [Compound 129, (R)-2-((1H-pyrrolo[2,3-b]pyridin-5-yl)oxy)-4-(4-(1-chloro-6,7,8,9-tetrahydro-5H-benzo[7]annulen-5-yl)piperazin-1-yl)-N-((4-(((7-(cyclopropylmethyl)-7-azaspiro[3.5]nonan-2-yl)methyl)amino)-3-nitrophenyl)sulfonyl)benzamide], the IC50 in assay [1] and in assay [2] was less than 20 nM throughout. Besides, the GI50 in assay [3] was less than 50 nM.

Consider `CCOC(=O)CCN1CCC2(CC1)CC(CNc1ccc(S(=O)(=O)NC(=O)c3ccc(N4CCN([C@@H]5CCCCc6c(Cl)cccc65)CC4)cc3Oc3cnc4[nH]ccc4c3)cc1[N+](=O)[O-])C2` [Compound 130, ethyl (R)-3-(2-(((4-(N-(2-((1H-pyrrolo[2,3-b]pyridin-5-yl)oxy)-4-(4-(1-chloro-6,7,8,9-tetrahydro-5H-benzo[7]annulen-5-yl)piperazin-1-yl)benzoyl)sulfamoyl)-2-nitrophenyl)amino)methyl)-7-azaspiro[3.5]nonan-7-yl)propanoate], for which the half-maximal inhibitory concentration (IC50) in assay [1] and in assay [2] was less than 20 nM throughout. This compound came in with a GI50 in assay [3] of less than 50 nM.

Regarding `CCN1CCC2(CC1)CC(CNc1ccc(S(=O)(=O)NC(=O)c3ccc(N4CCN([C@@H]5CCCCc6c(Cl)cccc65)CC4)cc3Oc3cnc4[nH]ccc4c3)cc1[N+](=O)[O-])C2` [Compound 131, (R)-2-((1H-pyrrolo[2,3-b]pyridin-5-yl)oxy)-4-(4-(1-chloro-6,7,8,9-tetrahydro-5H-benzo[7]annulen-5-yl)piperazin-1-yl)-N-((4-(((7-ethyl-7-azaspiro[3.5]nonan-2-yl)methyl)amino)-3-nitrophenyl)sulfonyl)benzamide], the half-inhibitory concentration (IC50) in assay [1] and in assay [2] was less than 20 nM throughout. This compound also came in with a GI50 in assay [3] of less than 50 nM.
